Measurements reported in patent US8481592B2, “Uses of sesquiterpene derivatives” (Kwang Dong Pharm Co., Ltd., priority 2008, dated 2013).
Counter-ions that a name gives are not always drawn. Marks after values point to notes of the source that are not given here.

Assays:
C. elegans = experiment: Anti-obesity effect (fat content by Nile red staining) in C. elegans; type: in vivo, Caenorhabditis elegans; set-up: key to Fat content: A low fat content was indicated by +1; a high fat content was assigned with +4; conditions: for inhibitory effect on adipogenesis: low concentration of 1 μg/ml; for Fat content: Nile red staining
Procedure: Using a dissecting microscope (×50 magnification), C. elegans at the 4th stage (L4, the imaginal stage) was transferred to 3 ml of a cholesterol-supplemented S-medium (containing NaCl, K2HPO4, KH2PO4, cholesterol, citrate, trace metals, CaCl2 and MgSO4), and 100 μl of E. coli OP50 (OD600=0.2) liquid-cultured overnight before 1 day of experiment was added thereto. The Pterocarpus indicus fraction sample was added to the liquid media containing C. elegans, followed by rotary culture in a dark room at 16° C. and 100 rpm. The water-insoluble sample was dissolved in DMSO and added to the culture media. The final concentration of DMSO was adjusted below 1%. […] 24 hours after the sample was added to C. elegans, 30 μl of a Nile red dye at a concentration of 10 μg/ml was added (final concentration of Nile red was adjusted to 100 ng/ml) to the media, followed by continuous rotary culture for 2 days.
In order to arrest the locomotory movement of C. elegan, 20 μl of 0.3% NaN3 was dropped on a slide glass to which 100 μl of C. elegans cultured in the presence of Nile red for 2 days was added. Under a fluorescence microscope, adipocytes of C. elegans emitting red fluorescence in a dark room were micrographed and compared with the control group to thereby determine the amount of fat. A low fat content was indicated by +1, whereas a high fat content was assigned with +4. Adult (L4 stage) C. elegans immediately prior to egg-laying were used in this Example. Therefore, the eggs were hatched after sample treatment and most of adult C. elegans were killed at 3 day post-treatment. A fat content was examined in C. elegans which had newly hatched and grown.

[1] = Physical characteristics of the compounds (solubility, stability); conditions: easily dissolved in organic solvent having lower polarity than ethanol, but not water
[2] = Body weight gain and total visceral fat weight in mice fed high fat diet containing sesquiterpene compound; type: in vivo, mouse; conditions: for Body weight gain / total visceral fat weight: HFD with 0.2% compound in diet, C57BL mice, 8 weeks; for total visceral fat weight: epididymal, perirenal, mesenteric and abdominal fat
Source text: Obesity-inducible diet used in the present experiment was high fat diet (HFD: 40% fat calorie, 17 g Lard+3% maize oil/100 g diet) developed by the present inventors and the composition of diet containing sesquiterpene compounds was equal to that of HFD but each 8 sesquiterpene compounds with a concentration of 0.2% was included in diet [cedryl acetate-containing diet, (−)-α-cedrene-containing diet, (+)-β-cedrene-containing diet, cedrene epoxide-containing diet, methyl cedryl ether-containing diet, methyl cedryl ketone-containing diet, cedrenol-containing diet and (+)-cedrol-containing diet]. The composition of diet is described in the following Table 5.
6-old-week C57BL/63 male mice were adapted to laboratory environment during one week and divided into HFD control and 8 test groups according to randommized block design. […] Diet was supplied with water at 10-11 o'clock every morning, and intake amount of diet and body weight was measured every day and once of three days, respectively. The body weight was measure at 2 hrs after removing feed bin to block sudden change of body weight according to feed intake, and feed efficiency was calculated by dividing body weight gain by amount of total intake amount of diet during total experimental period which is from initial day supplying experimental diet to sacrificed day. After experimental animals were fasted for above 12 hrs, they were anesthetized with diethylether, and their blood, liver and visceral fat tissues (epididymal fat, perirenal fat, mesenteric fat and abdominal fat) were collected. And then, they were washed with 0.1 M phosphate-buffered saline (pH 7.4), and their weights were measured. Blood taken from abdominal aorta was centrifuged at 1,000×g for 15 min to separate plasma.

[3] = Biochemical index of blood and liver tissue in mice fed high fat diet containing sesquiterpene compound; type: in vivo, mouse; conditions: for Liver Triglyceride / IRI (insulin resistance index) / Plasma Glucose / Plasma Insulin / Plasma Total cholesterol / Plasma Triglyceride: HFD with compound in diet, 8 weeks; for IRI (insulin resistance index) / Plasma Glucose / Plasma Insulin / Plasma Total cholesterol / Plasma Triglyceride: fasted
Procedure: The composition of diet is described in the following Table 5. […] After experimental animals were fasted for above 12 hrs, they were anesthetized with diethylether, and their blood, liver and visceral fat tissues (epididymal fat, perirenal fat, mesenteric fat and abdominal fat) were collected. And then, they were washed with 0.1 M phosphate-buffered saline (pH 7.4), and their weights were measured. […] Concentration of total Plasma cholesterol, triglyceride and glucose was measured twice according to commercially available measurement kit (Bio Clinical system), respectively. Insulin concentration was measured by ELISA using mouse insulin kit (Shibayaki, Japan). […] The homogenate was mixed with 5 ml of chloroform:methanol solution (2:1, v/v), and centrifuged at 1,000×g for 10 min to separate lower phase. […] Three ml of chloroform:methanol:0.05% CaCl2 solution (3:48:47, v/v/v) were added to the resulting lower phase, and thoroughly mixed for 1 min. The mixture was centrifuged at 1,000×g for 10 min. The final lower phase was completely dried on nitrogen gas, and the dried lipid was dissolved in 1 ml of methanol to use analysis of lipid component. Triglyceride concentration in lipid extracts from liver tissues was measured according to commercially available measurement kit (Bio Clinical system) equal to that used in analysis of plasma.

SMILES	inhibitory effect on adipogenesis (C. elegans)	Fat content (C. elegans; sample concentration 1 μg/ml)	Fat content (C. elegans; sample concentration 10 μg/ml)	Fat content (C. elegans; sample concentration 100 μg/ml)	Solubility [1]	Body weight gain [2]	total visceral fat weight [2]	Visceral fat weight compared to control ([2]; diet fed during 8-week)	all fasting glucose, blood insulin concentration and insulin resistance index in comparison with control ([3]; 8-week)	Liver Triglyceride [3]	IRI (insulin resistance index) [3]	Plasma Glucose [3]	Plasma Insulin [3]	Plasma Total cholesterol [3]	Plasma Triglyceride [3]	triglyceride concentration of liver tissue reduced compared to HFD ([3]; 8-week)	Plasma triglyceride concentration reduced compared to HFD ([3]; 8-week)	blood insulin concentration reduced compared to HFD ([3]; 8-week)	fasting glucose reduced compared to HFD ([3]; 8-week)	insulin resistance index reduced compared to HFD ([3]; 8-week)
C=C1[C@@H](O)C[C@@]23C[C@@H]1C(C)(C)C2CC[C@H]3C (single isomer, unassigned; (+)) [(+)-8(15)-cedrene-9-ol, (+)-8(15)-Cedren-9-ol]	notably inhibitory effect on adipogenesis	+2	+1	+2	Fat soluble	–	–	–	–	–	–	–	–	–	–	–	–	–	–	–
C=C1C2CCC3C2[C@@H](C(C)C)CC[C@@]13C (single isomer, unassigned; (+)) [(+)-sativene]	notably inhibitory effect on adipogenesis	+2	+2	+1	Fat soluble	–	–	–	–	–	–	–	–	–	–	–	–	–	–	–
CC1(C)C=C[C@]23CCC[C@](C)(CCC12)C3 (single isomer, unassigned; (-)) [(−)-clovene, (−)-Clovene]	notably inhibitory effect on adipogenesis	+2	+2	+2	Fat soluble	–	–	–	–	–	–	–	–	–	–	–	–	–	–	–
C[C@@H]1CC[C@H]2C(C)(C)[C@H]3C[C@@]12CC[C@@]3(C)O [(+)-cedrol]	–	+4	+4	+3	–	10.9 ± 0.85 g/8 weeks	92.4 ± 5.31 mg/g body weight	higher than that in control	prone to be decreased in comparison with control, but statistical significance was not shown	49.1 ± 4.10 µmol/g	1.45 ± 0.22 10^−3 pmol insulin × mmol glucose × L^−2	9.8 ± 0.99 mmol/L	0.86 ± 0.07 ng/mL	2.98 ± 0.20 mmol/L	1.31 ± 0.10 mmol/L	–	–	–	–	–
CC1=CC[C@]23C[C@H]1C(C)(C)C2CC[C@H]3C (stereo partly drawn) [(+)-α-funebrene]	notably inhibitory effect on adipogenesis	+3	+2	+2	Fat soluble	–	–	–	–	–	–	–	–	–	–	–	–	–	–	–
C=C1CC[C@@]23C[C@@H]1C(C)(C)C2CC[C@H]3C (stereo partly drawn) [(+)-β-cedrene]	notably inhibitory effect on adipogenesis	+2	+3	+2	Fat soluble	7.13 ± 0.89 g/8 weeks	48.0 ± 8.27 mg/g body weight	–	–	16.6 ± 1.28 µmol/g	0.78 ± 0.11* 10^−3 pmol insulin × mmol glucose × L^−2	6.80 ± 0.41 mmol/L	0.70 ± 0.08 ng/mL	2.57 ± 0.19 mmol/L	1.32 ± 0.11 mmol/L	63%	–	–	–	–
C=C1CC[C@]23C[C@H]1C(C)(C)C2CC[C@H]3C (stereo partly drawn) [(+)-β-funebrene]	notably inhibitory effect on adipogenesis	+1	+1	+2	Fat soluble	–	–	–	–	–	–	–	–	–	–	–	–	–	–	–
C[C@@H]1CC[C@H]2C(C)(C)[C@H]3C[C@@]12CC[C@]3(C)O [(−)-epicedrol, (−)—epicedrol]	notably inhibitory effect on adipogenesis	+1	+1	+3	–	–	–	–	–	–	–	–	–	–	–	–	–	–	–	–
CC1=CC[C@@]23C[C@@H]1C(C)(C)C2CC[C@H]3C (stereo partly drawn) [(−)-α-cedrene]	notably inhibitory effect on adipogenesis	+2	+2	+2	Fat soluble	6.73 ± 1.02 g/8 weeks	40.0 ± 4.31 mg/g body weight	–	–	16.1 ± 0.60 µmol/g	0.75 ± 0.13* 10^−3 pmol insulin × mmol glucose × L^−2	6.41 ± 0.57 mmol/L	0.67 ± 0.04 ng/mL	2.11 ± 0.16 mmol/L	0.81 ± 0.15 mmol/L	64%	50%	–	–	–
CC(=O)O[C@]1(C)CC[C@@]23C[C@@H]1C(C)(C)[C@@H]2CC[C@H]3C [Cedryl acetate, cedryl acetate]	–	+4	+3	+2	Fat soluble	8.54 ± 0.84 g/8 weeks	46.4 ± 3.12 mg/g body weight	–	–	23.8 ± 2.33 µmol/g	0.44 ± 0.06* 10^−3 pmol insulin × mmol glucose × L^−2	4.67 ± 0.40 mmol/L	0.49 ± 0.07 ng/mL	2.53 ± 0.10 mmol/L	1.12 ± 0.06 mmol/L	–	30%	49%	54%	73%
C[C@@H]1CC[C@H]2C(C)(C)[C@H]3C[C@@]12CC1OC13C (stereo partly drawn) [cedrene epoxide, Cedrene epoxide]	–	+4	+3	+2	Fat soluble	12.4 ± 1.36 g/8 weeks	65.6 ± 4.43 mg/g body weight	–	–	27.8 ± 2.41 µmol/g	0.94 ± 0.14* 10^−3 pmol insulin × mmol glucose × L^−2	7.34 ± 0.68 mmol/L	0.71 ± 0.04 ng/mL	2.81 ± 0.18 mmol/L	1.32 ± 0.08 mmol/L	–	–	–	–	–
CC1=CCC23CC1C(C)(CO)C2CCC3C (stereo not drawn) [cedrenol, Cedrenol]	notably inhibitory effect on adipogenesis	+2	+1	+1	Fat soluble	9.51 ± 1.47 g/8 weeks	57.8 ± 4.02 mg/g body weight	–	–	25.0 ± 1.81 µmol/g	0.71 ± 0.09* 10^−3 pmol insulin × mmol glucose × L^−2	7.24 ± 0.56 mmol/L	0.58 ± 0.07 ng/mL	2.42 ± 0.22 mmol/L	1.20 ± 0.10 mmol/L	–	–	–	–	–
C[C@@H]1CC[C@H]2C(C)(C)[C@H]3C[C@@]12CC[C@@]3(C)OC=O [cedryl formate, Cedryl formate]	notably inhibitory effect on adipogenesis	+3	+1	+1	Fat soluble	–	–	–	–	–	–	–	–	–	–	–	–	–	–	–
